In PubChem BioAssay AID216 (DTP/NCI, 2004) one finds T/C data, which are given here for ten compounds.

Values joined by “and” are separate entries in the source; they are usually repeats but may differ in a detail not shown here. Identical values can stand only once. Toxic doses and inconclusive results are not listed. Numbered stars: 1 amine (or outer) side, 2 acyl side, 3 side chain; on linkers, the order of the positions; unused ones are H or OH. Bridge positions count the residues as written; N and C are the ends. Square brackets hold non-standard residues; d marks the D form. Peptide text beside a SMILES is read from it. I, II: the chains in the order shown. Actinocin(9to1) = Cc1c2oc3c(C)ccc(C(=O)[*:1])c3nc-2c(C(=O)[*:2])c(N)c1=O; aThr = C[C@H](O)[C@H](N)C(=O)O; NMeV = CN[C@H](C(=O)O)C(C)C; Sar = CNCC(=O)O

This assay has as its system BDF1 mice, P288 leukemia ip, survival T/C. Kind of assay: NCI In Vivo Anticancer Drug Screen. Data for tumor model P288 Lymphocytic Leukemia (intraperitoneal) in B6D2F1 (BDF1) mice. The settings on record: higher = longer survival. The procedure: The antitumor activity of compounds was measured in mice bearing transplantable tumors. Survival or tumor size were measured and the results are expressed as the measurement made in the treated group (T) divided by the measurement made in the vehicle treated control group (C). The tumor model used in this assay is P288 Lymphocytic Leukemia (intraperitoneal) in B6D2F1 (BDF1) mice

With `S=c1nc[nH]c2nc[nH]c12`, the T/C is, setting by setting: (endpoint: survival time, mean or median, dose: 5.0 mg/kg/injection, schedule: Q01DX010 (ip), vehicle: alkali diluted with saline) 92 % of control; (endpoint: survival time, mean or median, dose: 10.0 mg/kg/injection, schedule: Q01DX010 (ip), vehicle: alkali diluted with saline) 94 % of control; (endpoint: survival time, mean or median, dose: 12.5 mg/kg/injection, schedule: Q01DX Z (ip), vehicle: other) 97 % of control; (endpoint: survival time, mean or median, dose: 20.0 mg/kg/injection, schedule: Q01DX010 (ip), vehicle: alkali diluted with saline) 86 % of control and 100 % of control; (endpoint: survival time, mean or median, dose: 25.0 mg/kg/injection, schedule: Q01DX Z (ip), vehicle: other) 93 % of control and 100 % of control; (endpoint: survival time, mean or median, dose: 40.0 mg/kg/injection, schedule: Q01DX010 (ip), vehicle: alkali diluted with saline) 110 % of control and 86 % of control. Also, the T/C (endpoint: survival time, mean or median, dose: 50.0 mg/kg/injection, schedule: Q01DX Z (ip), vehicle: other) is 102 % of control and 94 % of control; the T/C (endpoint: survival time, mean or median, dose: 80.0 mg/kg/injection, schedule: Q01DX010 (ip), vehicle: alkali diluted with saline) is 117 % of control and 86 % of control; the T/C (endpoint: survival time, mean or median, dose: 100.0 mg/kg/injection, schedule: Q01DX Z (ip), vehicle: other) was 105 % of control and 118 % of control; the T/C (endpoint: survival time, mean or median, dose: 200.0 mg/kg/injection, schedule: Q01DX Z (ip), vehicle: other) was 106 % of control and 100 % of control; the T/C (endpoint: survival time, mean or median, dose: 400.0 mg/kg/injection, schedule: Q01DX Z (ip), vehicle: other) is 89 % of control.
On to `Cc1cc(N(CCCl)CCCl)ccc1N=Nc1ccccc1C(=O)O`, for which the T/C (endpoint: survival time, mean or median, dose: 0.45 mg/kg/injection, schedule: Q01DX Z (ip), vehicle: carboxymethylcellulose (CMC)) is 108 % of control; the T/C (endpoint: survival time, mean or median, dose: 0.9 mg/kg/injection, schedule: Q01DX Z (ip), vehicle: carboxymethylcellulose (CMC)) is 105 % of control; the T/C (endpoint: survival time, mean or median, dose: 1.8 mg/kg/injection, schedule: Q01DX Z (ip), vehicle: carboxymethylcellulose (CMC)) is 104 % of control; the T/C (endpoint: survival time, mean or median, dose: 3.75 mg/kg/injection, schedule: Q01DX Z (ip), vehicle: carboxymethylcellulose (CMC)) is 101 % of control; the T/C (endpoint: survival time, mean or median, dose: 5.0 mg/kg/injection, schedule: Q01DX010 (ip), vehicle: saline) was 88 % of control and 90 % of control; the T/C (endpoint: survival time, mean or median, dose: 7.5 mg/kg/injection, schedule: Q01DX Z (ip), vehicle: carboxymethylcellulose (CMC)) was 108 % of control. In addition, the T/C reads like this: (endpoint: survival time, mean or median, dose: 10.0 mg/kg/injection, schedule: Q01DX010 (ip), vehicle: saline) 90 % of control and 94 % of control; (endpoint: survival time, mean or median, dose: 20.0 mg/kg/injection, schedule: Q01DX010 (ip), vehicle: saline) 105 % of control and 90 % of control; (endpoint: survival time, mean or median, dose: 40.0 mg/kg/injection, schedule: Q01DX010 (ip), vehicle: saline) 94 % of control.
Take `CN(C)CC(=O)c1ccc(O)c(O)c1`: the T/C was 94 % of control (endpoint: survival time, mean or median, dose: 8.0 mg/kg/injection, schedule: Q01DX Z (ip), vehicle: saline); 105 % of control (endpoint: survival time, mean or median, dose: 16.0 mg/kg/injection, schedule: Q01DX Z (ip), vehicle: saline); 152 % of control (endpoint: survival time, mean or median, dose: 500.0 mg/kg/injection, schedule: Q01DX Z (ip), vehicle: saline); 150 % of control (endpoint: survival time, mean or median, dose: 675.0 mg/kg/injection, schedule: Q01DX010 (ip), vehicle: saline).
On to `CS(=O)(=O)OCC(O)C(O)COS(C)(=O)=O` (stereo not drawn), for which the T/C was 111 % of control (endpoint: survival time, mean or median, dose: 94.0 mg/kg/injection, schedule: Q01DX Z (ip), vehicle: saline); 105 % of control (endpoint: survival time, mean or median, dose: 100.0 mg/kg/injection, schedule: Q01DX010 (ip), vehicle: saline); 105 % of control (endpoint: survival time, mean or median, dose: 187.5 mg/kg/injection, schedule: Q01DX Z (ip), vehicle: saline); 94 % of control (endpoint: survival time, mean or median, dose: 200.0 mg/kg/injection, schedule: Q01DX010 (ip), vehicle: saline); 117 % of control (endpoint: survival time, mean or median, dose: 375.0 mg/kg/injection, schedule: Q01DX Z (ip), vehicle: saline); 111 % of control (endpoint: survival time, mean or median, dose: 750.0 mg/kg/injection, schedule: Q01DX Z (ip), vehicle: saline). Where the note is “endpoint: survival time, mean or median, dose: 800.0 mg/kg/injection, schedule: Q01DX010 (ip), vehicle: saline”, the T/C is 105 % of control.
On to `O=c1[nH]c(=O)n(C2CC(O)C(CO)O2)cc1Br` (stereo not drawn), for which the T/C (endpoint: survival time, mean or median, dose: 6.5 mg/kg/injection, schedule: Q01DX Z (ip), vehicle: carboxymethylcellulose (CMC)) is 96 % of control; the T/C (endpoint: survival time, mean or median, dose: 8.0 mg/kg/injection, schedule: Q01DX Z (ip), vehicle: carboxymethylcellulose (CMC)) was 95 % of control; the T/C (endpoint: survival time, mean or median, dose: 13.0 mg/kg/injection, schedule: Q01DX Z (ip), vehicle: carboxymethylcellulose (CMC)) is 107 % of control; the T/C (endpoint: survival time, mean or median, dose: 26.0 mg/kg/injection, schedule: Q01DX Z (ip), vehicle: carboxymethylcellulose (CMC)) was 102 % of control; the T/C (endpoint: survival time, mean or median, dose: 31.0 mg/kg/injection, schedule: Q01DX Z (ip), vehicle: carboxymethylcellulose (CMC)) is 90 % of control.
`O=C(O)CCCc1ccc(N(CCCl)CCCl)cc1`: the T/C was 110 % of control (endpoint: survival time, mean or median, dose: 3.1 mg/kg/injection, schedule: Q01DX Z (ip), vehicle: carboxymethylcellulose (CMC)); 88 % of control (endpoint: survival time, mean or median, dose: 3.13 mg/kg/injection, schedule: Q01DX010 (ip), vehicle: saline); 100 % of control (endpoint: survival time, mean or median, dose: 6.25 mg/kg/injection, schedule: Q01DX010 (ip), vehicle: saline); 90 % of control (endpoint: survival time, mean or median, dose: 6.25 mg/kg/injection, schedule: Q01DX Z (ip), vehicle: carboxymethylcellulose (CMC)); 100 % of control (endpoint: survival time, mean or median, dose: 12.5 mg/kg/injection, schedule: Q01DX010 (ip), vehicle: saline); 106 % of control (endpoint: survival time, mean or median, dose: 12.5 mg/kg/injection, schedule: Q01DX Z (ip), vehicle: carboxymethylcellulose (CMC)). Besides, the T/C (endpoint: survival time, mean or median, dose: 25.0 mg/kg/injection, schedule: Q01DX Z (ip), vehicle: carboxymethylcellulose (CMC)) is 114 % of control and 88 % of control.
Regarding `CN1c2c(nc(N)[nH]c2=O)NCC1CCNc1ccc(C(=O)NC(CCC(=O)O)C(=O)O)cc1` (stereo not drawn), the T/C was 104 % of control (endpoint: median survival time, dose: 6.25 mg/kg/injection, schedule: Q01DX009 (ip), vehicle: other); 104 % of control (endpoint: median survival time, dose: 12.5 mg/kg/injection, schedule: Q01DX009 (ip), vehicle: other); 108 % of control (endpoint: median survival time, dose: 25.0 mg/kg/injection, schedule: Q01DX009 (ip), vehicle: other); 116 % of control (endpoint: median survival time, dose: 50.0 mg/kg/injection, schedule: Q01DX009 (ip), vehicle: other); 162 % of control (endpoint: median survival time, dose: 400.0 mg/kg/injection, schedule: Q01DX009 (ip), vehicle: other); 100 % of control (endpoint: median survival time, dose: 800.0 mg/kg/injection, schedule: Q01DX009 (ip), vehicle: other).
As to `Nc1nc(F)nc2c1ncn2C1OC(CO)C(O)C1O` (stereo not drawn), the T/C reads like this: (endpoint: survival time, mean or median, dose: 0.5 mg/kg/injection, schedule: Q01DX010 (ip), vehicle: saline) 111 % of control; (endpoint: survival time, mean or median, dose: 1.0 mg/kg/injection, schedule: Q01DX010 (ip), vehicle: saline) 100 % of control; (endpoint: survival time, mean or median, dose: 2.0 mg/kg/injection, schedule: Q01DX010 (ip), vehicle: saline) 88 % of control; (endpoint: survival time, mean or median, dose: 4.0 mg/kg/injection, schedule: Q01DX010 (ip), vehicle: saline) 88 % of control; (endpoint: survival time, mean or median, dose: 125.0 micrograms/kg/injection, schedule: Q01DX010 (ip), vehicle: saline) 88 % of control; (endpoint: survival time, mean or median, dose: 500.0 micrograms/kg/injection, schedule: Q01DX010 (ip), vehicle: saline) 111 % of control. For the same compound, for the setting “endpoint: survival time, mean or median, dose: 1000.0 micrograms/kg/injection, schedule: Q01DX010 (ip), vehicle: saline”, the T/C was 116 % of control.
On to `Cc1c2oc3c(C)ccc(C(=O)N[C@@H]4C(=O)N[C@H](C(C)C)C(=O)N5CCC[C@H]5C(=O)N(C)CC(=O)N(C)[C@@H](C(C)C)C(=O)O[C@H]4C)c3nc-2c(C(=O)N[C@@H]2C(=O)N[C@H](C(C)C)C(=O)N3CCC[C@H]3C(=O)N(C)CC(=O)N(C)[C@@H](C(C)C)C(=O)O[C@H]2C)c(N)c1=O` (I: [aThr][dV]P[Sar][NMeV] / II: [aThr][dV]P[Sar][NMeV]; ester I:1-I:C, II:1-II:C; linker I:N-II:N via Actinocin(9to1)), for which the T/C (endpoint: survival time, mean or median, dose: 0.05 mg/kg/injection, schedule: Q01DX010 (ip), vehicle: other) is 155 % of control.
On to `CC(=O)[C@H]1CC[C@H]2[C@@H]3C[C@H](C)C4=CC(=O)CC[C@]4(C)[C@H]3C(=O)C[C@]12C`, for which the T/C reads like this: (endpoint: survival time, mean or median, dose: 25.0 mg/kg/injection, schedule: Q01DX Z (sc), vehicle: steriod suspending solution) 100 % of control; (endpoint: survival time, mean or median, dose: 50.0 mg/kg/injection, schedule: Q01DX Z (sc), vehicle: steriod suspending solution) 108 % of control; (endpoint: survival time, mean or median, dose: 100.0 mg/kg/injection, schedule: Q01DX Z (sc), vehicle: steriod suspending solution) 114 % of control; (endpoint: survival time, mean or median, dose: 200.0 mg/kg/injection, schedule: Q01DX Z (sc), vehicle: steriod suspending solution) 104 % of control and 105 % of control; (endpoint: survival time, mean or median, dose: 400.0 mg/kg/injection, schedule: Q01DX Z (sc), vehicle: steriod suspending solution) 110 % of control; (endpoint: survival time, mean or median, dose: 800.0 mg/kg/injection, schedule: Q01DX Z (sc), vehicle: steriod suspending solution) 100 % of control.
